Test results published in patent US20140349943A1, “TOPICAL FORMULATIONS OF CHEMERIN C15 PEPTIDES FOR THE TREATMENT OF DERMATOLOGICAL CONDITIONS” (priority 2011, published 2014).
“And” between values parts separate entries of the source, which are not always exact repeats. Identical values can stand only once. Peptide text beside a SMILES is read from it.

How the values were obtained:
[1] = Franz diffusion cell skin penetration, C15 ointment; assay type: in vitro ADME, human
Method: The objective of the study was to determine whether human chemerin C15 peptide would diffuse through in vitro human skin maintained under flow-through conditions in Franz cells where the C15 peptide is administered as an ointment. Human chemerin C15 peptide was prepared as an ointment as described in Example 4. A 10% solution of the C15 ointment was prepare immediately prior to skin application. […] human skin obtained from abdominoplasty was maintained in tissue media and antibiotics and used within 3 days.
A standard Franz diffusion cell (LGA, Berkeley, Calif.) was used under static conditions (n=3). Approximately 200 μl of the 10% ointment solution was transferred to the surface of the skin and distributed on the surface by spatula. A thin liner was then applied for light pressure to the skin surface for 5 min after which the diffusion cell was occluded and maintained for 24 hours. After this time, the ointment was recovered by scraping a spatula over the skin surface and transferring the retained material to a 50/50 water-chloroform solution. The epidermis and dermis were then separated by heat and the epidermis extracted with a 50/50 water-chloroform solution. The epidermis was then transferred to a second tube and homogenized in PBS containing 0.1% protease inhibitor. The dermis was minced and homogenized in PBS containing 0.1% protease inhibitor. The receptor fluid was recovered and concentrated under vacuum. Ointment without C15 was applied to skin and the skin sampled in the same manner as a control (n=2).
C15 recovery from the dosing material, epidermis, and receptor fluid was determined by HPLC. C15 concentration in the dermis was determine by LC/MS. The skin surface and epidermis recoveries and epidermis homogenate samples were analyzed using the following reversed phase HPLC conditions:
The dermis samples were analyzed using the following LC/MS/MS conditions: […]

[2] = test system: K5.Stat3C recombinant mice; experiment: K5.Stat3C mouse model of psoriasis (TPA induced lesions); assay type: in vivo; conditions: expected
Method: In this example, the therapeutic activity of a human chemerin C15 peptide is tested in a mouse model of psoriasis. K5.Stat3C recombinant mice resemble human psoriasis based on clinical, histological, immunophenotypic, and biochemical criteria used to evaluate animal models of psoriasis. The K5.Stat3C mice constitutively express activated […] in keritinocytes and epidermal hyperplasia upon stimulation with 12-0-tetradecanoylphorbol-13-acetate (TPA) topical treatment.
In an exemplary protocol, mice are treated topically on the ear with TPA (e.g. 3.4 nmol TPA in acetone) or acetone control to induce skin lesions 3 times per week for 4-8 weeks. Real-time PCR in skin samples is used to confirm upregulation of cytokine expression, including IL-23, IL012, TNF-α, IL-β, and/or IL-6. Following induction of skin lesions, formulations comprising the human chemerin C15 peptide or vehicle control are applied topically to the skin lesions daily for 6-12 days. Improvement in the lesions is assessed daily.

[3] = ointment, 24 hours, listed as C15

SMILES: C[C@H](N)C(=O)NCC(=O)N[C@@H](CCC(=O)O)C(=O)N[C@@H](CC(=O)O)C(=O)N1CCC[C@H]1C(=O)N[C@@H](Cc1c[nH]cn1)C(=O)N[C@@H](CO)C(=O)N[C@@H](Cc1ccccc1)C(=O)N[C@@H](Cc1ccc(O)cc1)C(=O)N[C@@H](Cc1ccccc1)C(=O)N1CCC[C@H]1C(=O)NCC(=O)N[C@@H](CCC(N)=O)C(=O)N[C@@H](Cc1ccccc1)C(=O)N[C@@H](C)C(=O)O [C15 (human)] (H-AGEDPHSFYFPGQFA-OH; N-terminus and C-terminus assumed)
- [C15] in Receptor Fluid (5 mL) ([1]; Ointment, fresh human skin, after 24 hrs): <10 nM
- recovery at 24 h ([1]; female, human, ointment, 24 hours, mass balance, read-out: Total % recovery): 104%
- epidermis and dermis combined, share of the applied dose ([1]; ointment): < 1%
- Receptor fluid, C15 ([1]; ointment, 24 hours, HPLC LLQ 150 ng/ml): <LLQ
- Dermis homogenate, % of applied [1, 3]: 0.00% and 0.02% and 0.12%
- Epidermis, % of applied [1, 3]: 70.2% and 64.1% and 71.2%
- Epidermis, C15 [1, 3]: 1.53 mg and 2.25 mg and 1.45 mg
- Skin Surface, % of applied [1, 3]: 33.6% and 33.3% and 40.6%
- Skin Surface, C15 recovered [1, 3]: 0.74 mg and 1.17 mg and 0.83 mg
- Total % recovery ([1]; ointment, 24 hours, mass balance, listed as C15): 97.4% and 111.8%
- cytokine expression in the psoriatic lesions ([2]; topical daily for 6-12 days): decreased cytokine expression
- psoriatic phenotype of the epidermis ([2]; visual inspection and histological examination): improvement in the psoriatic phenotype of the epidermis
